From patent publication US20140057915A1, “KINASE INHIBITORS” (TOPIVERT PHARMA LIMITED, priority 2012, published 2014) come the findings set out here.

The test system of data set [1] is ICAM-1 expression, BEAS2B cells. As to the kind of experiment: Poly I:C-induced ICAM-1 expression in BEAS2B cells. Conditions: Homo sapiens, BEAS-2B; read-out: Poly IC induced ICAM1 in BEAS2B, IC50. It counts as cell-based. On the procedure: (f) Poly I:C-Induced ICAM-1 Expression in BEAS2B Cells
Poly I:C is used in these studies as a simple, RNA virus mimic. Poly I:C-Oligofectamine mixture (1 μg/mL Poly I:C, ±2% Oligofectamine, 25 μL; Invivogen Ltd., San Diego, Calif., and Invitrogen, Carlsbad, Calif., respectively) is transfected into BEAS2B cells (human bronchial epithelial cells, ATCC). Cells are pre-incubated with final concentrations of test compounds for 2 hr and the level of ICAM1 expression on the cell surface is determined by cell-based ELISA. At a time point 18 hr after poly I:C transfection, cells are fixed with 4% formaldehyde in PBS (100 μL) and then endogenous peroxidase is quenched by the addition of washing buffer (100 μL, 0.05% Tween in PBS: PBS-Tween) containing 0.1% sodium azide and 1% hydrogen peroxide. Cells are washed with wash-buffer (3×200 μL). and after blocking the wells with 5% milk in PBS-Tween (100 μL) for 1 hr, the cells are incubated with anti-human ICAM-1 antibody (50 μL; Cell Signalling Technology, Danvers, Mass.) in 1% BSA PBS overnight at 4° C.
The cells are washed with PBS-Tween (3×200 μL) and incubated with the secondary antibody (100 μL; HRP-conjugated anti-rabbit IgG, Dako Ltd., Glostrup, Denmark). […] The ICAM-1 signal is detected by reading the absorbance at 450 nm against a reference wavelength of 655 nm using a spectrophotometer. The cells are then washed with PBS-Tween (3×200 μL) and total cell numbers in each well are determined by reading absorbance at 595 nm after Crystal Violet staining (50 μL of a 2% solution in PBS) and elution by 1% SDS solution (100 μL) in distilled water. The measured OD 450-655 readings are corrected for cell number by dividing with the OD595 reading in each well. The inhibition of ICAM-1 expression is calculated at each concentration of test compound by comparison with vehicle control.

The subject of the next data set is d-U937 cells. As to the kind of experiment: Cell viability: MTT assay. In kind it is cell-based, human. Conditions: 1 μg/mL. As for the experimental part:
(l) The Effect of Test Compounds on Cell Viability: MTT Assay
Differentiated U937 cells are pre-incubated with each test compound (final concentration 1 μg/mL or 10 μg/mL in 200 μL media indicated below) under two protocols: the first for 4 hr in 5% FCS RPMI1640 media and the second in 10% FCS RPMI1640 media for 24 h. The supernatant is replaced with new media (200 μL) and MTT stock solution (10 μL, 5 mg/mL) is added to each well. After incubation for 1 hr the media are removed, DMSO (200 μL) is added to each well and the plates are shaken lightly for 1 hr prior to reading the absorbance at 550 nm. The percentage loss of cell viability is calculated for each well relative to vehicle (0.5% DMSO) treatment. Consequently an apparent increase in cell viability for drug treatment relative to vehicle is tabulated as a negative percentage.

Another data set addresses cSrc (Homo sapiens, UniProt P12931). The experiment in a line: c-Src enzyme inhibition (FRET). It counts as biochemical. The note with it: Table 4a1. On the procedure: (§1) The enzyme inhibitory activities of compounds disclosed herein are determined by FRET using synthetic peptides labelled with both donor and acceptor fluorophores (Z-LYTE, Invitrogen Ltd., Paisley, UK).
(§2) The relevant enzyme (3000 ng/mL or 2000 ng/mL respectively, 2.5 μL) is incubated with the test compound (either 4 μg/mL, 0.4 μg/mL, 0.04 μg/mL, or 0.004 μg/mL, 2.5 μL each) for 2 hr at RT. The FRET peptides (8 μM, 2.5 μL), and appropriate ATP solutions (2.5 μL, 800 μM for c-Src, and 60 μM ATP for Syk) are then added to the enzymes/compound mixtures and incubated for 1 hr. Development reagent (protease, 5 μL) is added for 1 hr prior to detection in a fluorescence microplate reader (Varioskan® Flash, ThermoFisher Scientific).
(§3) In all cases, the site-specific protease cleaves non-phosphorylated peptide only and eliminates the FRET signal. Phosphorylation levels of each reaction are calculated using the ratio of coumarin emission (donor) over fluorescein emission (acceptor), for which high ratios indicate high phosphorylation and low ratios indicate low phosphorylation levels.

The target of another data set is GSK3α (Homo sapiens, UniProt P49840). As to the kind of experiment: GSK 3α enzyme inhibition (FRET), Method 1. In kind it is biochemical. The note with it: Table 4a1. On the procedure: as §1
Sequence of GSK3α (P49840 whole entry): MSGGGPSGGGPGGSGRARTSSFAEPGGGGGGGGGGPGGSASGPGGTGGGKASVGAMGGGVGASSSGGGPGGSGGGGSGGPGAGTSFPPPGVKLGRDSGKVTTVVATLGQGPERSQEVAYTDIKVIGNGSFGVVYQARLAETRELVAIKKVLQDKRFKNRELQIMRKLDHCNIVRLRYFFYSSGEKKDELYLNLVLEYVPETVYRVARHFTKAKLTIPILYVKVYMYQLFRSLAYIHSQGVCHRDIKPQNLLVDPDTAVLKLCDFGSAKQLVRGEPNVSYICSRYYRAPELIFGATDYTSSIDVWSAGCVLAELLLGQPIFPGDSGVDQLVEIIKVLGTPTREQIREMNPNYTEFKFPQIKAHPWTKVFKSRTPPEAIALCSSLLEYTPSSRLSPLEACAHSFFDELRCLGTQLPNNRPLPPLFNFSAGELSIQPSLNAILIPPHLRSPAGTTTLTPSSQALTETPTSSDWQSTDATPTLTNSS
The following two assay variants are used for determination of GSK 3a inhibition.
The inhibitory activities of compounds of the invention against the GSK 3a enzyme isoform (Invitrogen), are evaluated by determining the level of activation/phosphorylation of the target peptide. The GSK3-α protein (500 ng/mL, 2.5 μL) is mixed with the test compound (2.5 μL at either 4 μg/mL, 0.4 μg/mL, 0.04 μg/mL, or 0.004 μg/mL) for 2 hr at RT. The FRET peptide (8 μM, 2.5 μL), which is a phosphorylation target for GSK3α, and ATP (40 μM, 2.5 μL) are then added to the enzyme/compound mixture and the resulting mixture incubated for 1 hr. Development reagent (protease, 5 μL) is added for 1 hr prior to detection in a fluorescence microplate reader (Varioskan® Flash, ThermoFisher Scientific).
as §3

The subject of data set [2] is TNFα release, d-U937 cells. The experiment in a line: LPS-induced TNFα release in d-U937 cells. In kind it is cell-based. Conditions: Homo sapiens, dU937; relative to 10 μg/mL BIRB796; Table 4c1; read-out: LPS Induced Release of Cytokine in d-U937 Cells, TNFα REC50. On the procedure: (§4) (a) LPS-Induced TNFα/IL-8 Release in d-U937Cells
U937 cells, a human monocytic cell line, are differentiated into macrophage-type cells by incubation with PMA (100 ng/mL) for 48 to 72 hr. Cells are pre-incubated with final concentrations of test compound for 2 hr and are then stimulated with LPS (0.1 μg/mL; from E. Coli: 0111:B4, Sigma) for 4 hr. The supernatant is collected for determination of TNFα and IL-8 concentrations by sandwich ELISA (Duo-set, R&D systems). […] The relative 50% effective concentration (REC50) is determined from the resultant concentration-response curve. The inhibition of IL-8 production is calculated at each concentration of test compound by comparison with vehicle control.

A further data set addresses Syk (Homo sapiens, UniProt P43405). As to the kind of experiment: Syk enzyme inhibition (FRET). Conditions: Table 4a1. In kind it is biochemical. As for the experimental part:
as §1, §2, §3

The subject of data set [3] is IL-8 release, d-U937 cells. The experiment in a line: LPS-induced IL-8 release in d-U937 cells. The note with it: Homo sapiens, dU937; Table 4c1; read-out: LPS Induced Release of Cytokine in d-U937 Cells, IL-8 IC50. In kind it is cell-based. On the procedure: as §4
U937 cells, a human monocytic cell line, are differentiated into macrophage-type cells by incubation with PMA (100 ng/mL) for 48 to 72 hr. Cells are pre-incubated with final concentrations of test compound for 2 hr and are then stimulated with LPS (0.1 μg/mL; from E. Coli: 0111:B4, Sigma) for 4 hr. […] The relative 50% effective concentration (REC50) is determined from the resultant concentration-response curve.

Sequence of cSrc (P12931 whole entry): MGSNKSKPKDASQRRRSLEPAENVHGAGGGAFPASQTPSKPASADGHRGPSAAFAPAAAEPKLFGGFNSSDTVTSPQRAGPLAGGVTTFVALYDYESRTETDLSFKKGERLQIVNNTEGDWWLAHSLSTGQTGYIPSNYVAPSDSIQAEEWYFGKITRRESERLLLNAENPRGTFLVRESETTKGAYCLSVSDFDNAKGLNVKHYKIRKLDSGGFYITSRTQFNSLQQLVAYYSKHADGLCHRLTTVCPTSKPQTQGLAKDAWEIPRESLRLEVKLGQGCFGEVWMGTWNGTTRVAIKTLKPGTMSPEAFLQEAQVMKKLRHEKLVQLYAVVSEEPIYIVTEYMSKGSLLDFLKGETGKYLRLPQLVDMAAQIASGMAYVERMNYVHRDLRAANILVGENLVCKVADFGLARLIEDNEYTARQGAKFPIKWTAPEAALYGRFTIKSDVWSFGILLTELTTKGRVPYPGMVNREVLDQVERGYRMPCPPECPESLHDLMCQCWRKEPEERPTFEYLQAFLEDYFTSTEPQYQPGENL

As for `COc1cc(Nc2nccc(Oc3ccc(NC(=O)Nc4cc(C(C)C)nn4-c4ccc(OC)nc4)c4ccccc34)n2)cc(C(=O)NCCN2CCOCC2)c1` [Example 10, 3-((4-((4-(3-(3-Isopropyl-1-(6-methoxypyridin-3-yl)-1H-pyrazol-5-yl)ureido)naphthalen-1-yl)oxy)pyrimidin-2-yl)amino)-5-methoxy-N-(2-morpholinoethyl)benzamide], the IC50 (usually the concentration that inhibits the measured activity by half) was 7.3 nM in data set [1]; 2 nM against cSrc; greater than 12900 nM at GSK3α; 4 nM against Syk; 1.8 nM in data set [3]. In the data set on d-U937 cells, the “Cell viability at time point in d-U937 cells, 4 h” value is “−ve (−ve and +ve indicate that the value is below and above respectively, the no significant effect threshold, defined as 30% inhibition at 1 μg/mL at the time point indicated)”. Besides, the “Cell viability at time point in d-U937 cells, 24 h” value (“Cell viability at time point … 24 h” for short) in the data set on d-U937 cells was “−ve (−ve and +ve indicate that the value is below and above respectively, the no significant effect threshold, defined as 30% inhibition at 1 μg/mL at the time point indicated)”. Moreover, in data set [2], the EC50 was 1.3 nM.
In the case of `COc1ccc(-n2nc(C(C)C)cc2NC(=O)Nc2ccc(Oc3cc(Nc4cc(OC)cc(C(=O)NCCN5CCOCC5)c4)ncn3)c3ccccc23)cc1` [Example 14, 3-((6-((4-(3-(3-isopropyl-1-(4-methoxyphenyl)-1H-pyrazol-5-yl)ureido)naphthalen-1-yl)oxy)pyrimidin-4-yl)amino)-5-methoxy-N-(2-morpholinoethyl)benzamide], the IC50 in data set [1] is 3 nM; at cSrc, 4 nM; on GSK3α, 355 nM; against Syk it was greater than 1300 nM; in data set [3], 5 nM. Besides, the “Cell viability at time point in d-U937 cells, 4 h” value in the data set on d-U937 cells is “−ve (−ve and +ve indicate that the value is below and above respectively, the no significant effect threshold, defined as 30% inhibition at 1 μg/mL at the time point indicated)”. Besides, the “Cell viability at time point … 24 h” value in the data set on d-U937 cells is “+ve (−ve and +ve indicate that the value is below and above respectively, the no significant effect threshold, defined as 30% inhibition at 1 μg/mL at the time point indicated)”. For the same compound, in data set [2], the EC50 was determined as 1.2 nM.
In the case of `COc1ccc(-n2nc(C(C)C)cc2NC(=O)Nc2ccc(Oc3ccnc(Nc4cc(OC)cc(C(=O)NCCN5CCOCC5)c4)c3)c3ccccc23)cc1` [Example 15, 3-((4-((4-(3-(3-isopropyl-1-(4-methoxyphenyl)-1H-pyrazol-5-yl)ureido)naphthalen-1-yl)oxy)pyridin-2-yl)amino)-5-methoxy-N-(2-morpholinoethyl)benzamide], the IC50 in data set [1] is 26.2 nM; at cSrc, 4 nM; against GSK3α, 3180 nM; against Syk it was 16 nM; in data set [3], 1.6 nM. Further, the “Cell viability at time point in d-U937 cells, 4 h” value with d-U937 cells was “−ve (−ve and +ve indicate that the value is below and above respectively, the no significant effect threshold, defined as 30% inhibition at 1 μg/mL at the time point indicated)”. Moreover, the “Cell viability at time point … 24 h” value in the data set on d-U937 cells is “−ve (−ve and +ve indicate that the value is below and above respectively, the no significant effect threshold, defined as 30% inhibition at 1 μg/mL at the time point indicated)”. The EC50 in data set [2] was 0.4 nM.
Regarding `CNC(=O)c1cccc(Nc2nccc(Oc3ccc(NC(=O)Nc4cc(C(C)(C)C)nn4-c4ccc(C)cc4)c4ccccc34)n2)c1` [Example 16, 3-((4-((4-(3-(3-(tert-butyl)-1-(p-tolyl)-1H-pyrazol-5-yl)ureido)naphthalen-1-yl)oxy)pyrimidin-2-yl)amino)-N-methylbenzamide], the half-maximal inhibitory concentration (IC50) was 1.9 nM in data set [1]; 9 nM against cSrc; 1400 nM on GSK3α; 1390 nM at Syk; 1.7 nM in data set [3]. Besides, the “Cell viability at time point in d-U937 cells, 4 h” value with d-U937 cells was “−ve (−ve and +ve indicate that the value is below and above respectively, the no significant effect threshold, defined as 30% inhibition at 1 μg/mL at the time point indicated)”. The “Cell viability at time point … 24 h” value in the data set on d-U937 cells is “−ve (−ve and +ve indicate that the value is below and above respectively, the no significant effect threshold, defined as 30% inhibition at 1 μg/mL at the time point indicated)”. Besides, in data set [2], the EC50 was determined as 1.3 nM.
